Measured values from ChEMBL document CHEMBL1208782, “Synthesis and pharmacological validation of a novel series of non-steroidal FXR agonists” (Bioorg Med Chem Lett, 2010).

Columns and labels:
Type in all cases: functional, cell-based
[1] = biological target: T1, Retinoic acid receptor RXR-alpha (Homo sapiens) (UniProt P19793); assay: Agonist activity at RXRalpha-LBD expressed in HEK293 cells assessed as Gal4-DBD interaction by cellular mammalian one hybrid assay relative to retinoic acid
T1 sequence (whole entry): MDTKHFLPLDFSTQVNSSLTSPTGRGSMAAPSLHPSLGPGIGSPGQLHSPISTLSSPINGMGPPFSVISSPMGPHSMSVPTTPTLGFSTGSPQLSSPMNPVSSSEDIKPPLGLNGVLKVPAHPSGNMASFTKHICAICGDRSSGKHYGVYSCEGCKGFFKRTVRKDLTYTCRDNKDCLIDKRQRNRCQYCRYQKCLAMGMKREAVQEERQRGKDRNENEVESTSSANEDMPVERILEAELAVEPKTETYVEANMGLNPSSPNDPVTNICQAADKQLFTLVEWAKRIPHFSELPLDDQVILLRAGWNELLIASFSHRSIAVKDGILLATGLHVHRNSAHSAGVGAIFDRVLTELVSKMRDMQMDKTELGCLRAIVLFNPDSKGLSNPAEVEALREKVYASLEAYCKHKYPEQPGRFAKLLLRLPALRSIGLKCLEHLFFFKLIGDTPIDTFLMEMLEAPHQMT

[2] = biological target: T2, Glucocorticoid receptor (Homo sapiens) (UniProt P04150); assay: Agonist activity at GR-LBD expressed in HEK293 cells assessed as Gal4-DBD interaction by cellular mammalian one hybrid assay relative to glucocorticoid
T2 sequence (whole entry): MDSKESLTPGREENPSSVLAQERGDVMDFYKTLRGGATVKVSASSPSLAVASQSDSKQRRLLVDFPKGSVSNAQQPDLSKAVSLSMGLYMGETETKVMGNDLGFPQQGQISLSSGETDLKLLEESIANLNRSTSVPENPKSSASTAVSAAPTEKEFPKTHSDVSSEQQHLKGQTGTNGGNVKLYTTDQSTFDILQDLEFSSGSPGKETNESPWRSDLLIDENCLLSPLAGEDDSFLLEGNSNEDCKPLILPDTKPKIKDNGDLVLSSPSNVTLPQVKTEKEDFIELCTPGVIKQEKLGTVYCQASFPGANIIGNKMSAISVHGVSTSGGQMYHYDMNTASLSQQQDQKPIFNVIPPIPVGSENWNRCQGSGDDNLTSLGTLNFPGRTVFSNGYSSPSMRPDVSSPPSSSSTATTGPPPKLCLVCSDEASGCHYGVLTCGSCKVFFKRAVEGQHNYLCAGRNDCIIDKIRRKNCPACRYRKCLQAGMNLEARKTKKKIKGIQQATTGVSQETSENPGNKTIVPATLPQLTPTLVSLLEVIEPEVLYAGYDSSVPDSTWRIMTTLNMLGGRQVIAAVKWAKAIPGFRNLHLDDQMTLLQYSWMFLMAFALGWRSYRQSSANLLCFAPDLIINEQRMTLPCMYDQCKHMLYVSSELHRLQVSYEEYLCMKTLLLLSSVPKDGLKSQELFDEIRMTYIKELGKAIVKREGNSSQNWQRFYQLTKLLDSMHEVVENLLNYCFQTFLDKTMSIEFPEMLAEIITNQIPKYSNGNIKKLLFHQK

[3] = biological target: T3, Peroxisome proliferator-activated receptor delta (Homo sapiens) (UniProt Q03181); assay: Agonist activity at PPAR-beta/delta-LBD expressed in HEK293 cells assessed as Gal4-DBD interaction by cellular mammalian one hybrid assay relative to control
T3 sequence (whole entry): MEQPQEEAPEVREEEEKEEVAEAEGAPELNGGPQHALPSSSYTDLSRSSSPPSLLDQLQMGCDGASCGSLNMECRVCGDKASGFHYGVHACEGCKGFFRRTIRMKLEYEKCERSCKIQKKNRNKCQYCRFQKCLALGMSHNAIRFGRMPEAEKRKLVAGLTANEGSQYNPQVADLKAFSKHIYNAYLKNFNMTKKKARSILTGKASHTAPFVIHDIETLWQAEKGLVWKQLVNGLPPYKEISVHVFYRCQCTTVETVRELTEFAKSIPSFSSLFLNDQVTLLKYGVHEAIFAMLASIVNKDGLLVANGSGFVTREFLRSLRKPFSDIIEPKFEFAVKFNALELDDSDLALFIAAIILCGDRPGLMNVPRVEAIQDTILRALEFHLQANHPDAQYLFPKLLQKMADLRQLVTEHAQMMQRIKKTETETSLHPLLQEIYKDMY

[4] = biological target: T4, Mineralocorticoid receptor (Homo sapiens, UniProt P08235); assay: Agonist activity at mineralocorticoid receptor-LBD expressed in HEK293 cells assessed as Gal4-DBD interaction by cellular mammalian one hybrid assay
T4 sequence (P08235 whole entry): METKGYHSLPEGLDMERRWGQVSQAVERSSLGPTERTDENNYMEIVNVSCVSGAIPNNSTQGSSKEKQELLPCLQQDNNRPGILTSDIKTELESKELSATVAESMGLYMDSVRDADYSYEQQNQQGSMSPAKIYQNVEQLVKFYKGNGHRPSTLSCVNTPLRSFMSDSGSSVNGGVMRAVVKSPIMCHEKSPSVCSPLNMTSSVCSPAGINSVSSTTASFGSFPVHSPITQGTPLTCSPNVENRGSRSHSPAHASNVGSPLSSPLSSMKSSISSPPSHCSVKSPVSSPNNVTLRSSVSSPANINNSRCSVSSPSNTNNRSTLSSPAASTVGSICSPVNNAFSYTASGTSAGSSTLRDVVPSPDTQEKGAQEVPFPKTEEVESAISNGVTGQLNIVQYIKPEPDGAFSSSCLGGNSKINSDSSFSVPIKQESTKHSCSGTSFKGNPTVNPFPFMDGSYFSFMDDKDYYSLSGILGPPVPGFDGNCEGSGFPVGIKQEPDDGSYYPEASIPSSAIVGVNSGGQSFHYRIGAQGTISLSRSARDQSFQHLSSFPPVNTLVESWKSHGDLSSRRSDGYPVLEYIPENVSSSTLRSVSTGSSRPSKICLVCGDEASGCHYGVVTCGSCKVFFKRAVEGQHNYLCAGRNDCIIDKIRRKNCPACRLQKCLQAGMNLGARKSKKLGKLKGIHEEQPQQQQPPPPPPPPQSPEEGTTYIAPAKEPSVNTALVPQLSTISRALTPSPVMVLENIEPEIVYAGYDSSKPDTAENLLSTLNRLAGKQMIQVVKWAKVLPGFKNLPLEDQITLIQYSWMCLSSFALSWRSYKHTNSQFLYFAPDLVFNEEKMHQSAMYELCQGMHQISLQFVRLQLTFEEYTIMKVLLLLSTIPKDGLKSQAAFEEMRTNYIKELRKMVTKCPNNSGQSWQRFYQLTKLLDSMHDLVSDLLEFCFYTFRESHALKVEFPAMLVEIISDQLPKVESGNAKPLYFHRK

Efficacy [1] [%] | Efficacy [2] [%] | Efficacy [3] [%] | EC50 [4] [µM] | SMILES
0 | 0 | 0 | > 10 | CN(Cc1cccc(C(=O)O)c1)c1ccc(OCc2c(-c3c(Cl)cccc3Cl)noc2C2CC2)nc1C(F)(F)F
0 | 0 | 0 | > 10 | CC(C)c1onc(-c2c(Cl)cccc2Cl)c1COc1ccc(N(C)Cc2ccc(C(=O)O)cc2)c(C(F)(F)F)n1
0 | 0 | 0 | > 10 | CN(Cc1ccc(C(=O)O)cc1)c1ccc(OCc2c(-c3c(Cl)cccc3Cl)noc2C2CC2)nc1C(F)(F)F
